Source: ChEMBL document CHEMBL6096719, “Kidney Targeting Smart Antibiotic Discovery: Multimechanism Pleuromutilins for Pyelonephritis Therapy” (J Med Chem, 2025)
≈ marks a conversion by molar mass, not a printed value.

What was measured:
[1] = target: Solute carrier family 22 member 1 (Homo sapiens, UniProt O15245); test: Inhibition of human OCT1 transfected in HEK293 cells assessed as decrease in intracellular ASP accumulation at 200 uM incubated for 10 mins followed by incubation with ASP for 5 mins by fluorescence based analysis; type: cell-based; details: hek293, 0.25 h, time 15 min
[2] = target: T1, Solute carrier family 22 member 2 (Homo sapiens, UniProt O15244); test: Inhibition of human OCT2 transfected in HEK293 cells assessed as decrease in intracellular ASP accumulation at 100 uM incubated for 10 mins followed by incubation with ASP for 5 mins by fluorescence based analysis; type: cell-based; details: hek293, 0.25 h, time 15 min
T1 sequence (O15244 whole entry): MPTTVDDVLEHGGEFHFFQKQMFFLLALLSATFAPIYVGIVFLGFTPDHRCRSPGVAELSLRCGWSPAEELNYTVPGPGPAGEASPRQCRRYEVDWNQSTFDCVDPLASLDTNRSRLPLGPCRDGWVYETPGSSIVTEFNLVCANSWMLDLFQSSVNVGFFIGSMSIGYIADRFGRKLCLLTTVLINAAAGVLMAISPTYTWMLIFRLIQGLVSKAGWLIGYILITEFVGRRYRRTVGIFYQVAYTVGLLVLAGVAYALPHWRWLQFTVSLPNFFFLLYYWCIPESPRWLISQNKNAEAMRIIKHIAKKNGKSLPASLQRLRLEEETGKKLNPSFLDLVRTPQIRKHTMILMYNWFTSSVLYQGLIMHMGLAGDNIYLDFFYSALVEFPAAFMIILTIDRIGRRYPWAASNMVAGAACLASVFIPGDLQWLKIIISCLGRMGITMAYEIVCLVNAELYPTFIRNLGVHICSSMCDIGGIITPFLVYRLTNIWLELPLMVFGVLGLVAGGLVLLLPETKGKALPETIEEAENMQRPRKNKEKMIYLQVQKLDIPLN

[3] = Aqueous solubility of the compound incubated for 12 hrs by UV-Vis spectrophotometry; type: physicochemical; details: buffer
Staphylococcus aureus [4] = test: Antibacterial activity against methicillin-resistant Staphylococcus aureus 171 assessed as inhibition of bacterial growth incubated for 24 hrs by broth microdilution method; type: functional
Staphylococcus aureus [5] = test: Antibacterial activity against methicillin-resistant Staphylococcus aureus 575 assessed as inhibition of bacterial growth incubated for 24 hrs by broth microdilution method; type: functional
Staphylococcus aureus [6] = test: Antibacterial activity against methicillin-resistant Staphylococcus aureus 206 assessed as inhibition of bacterial growth incubated for 24 hrs by broth microdilution method; type: functional
Staphylococcus aureus [7] = test: Antibacterial activity against methicillin-resistant Staphylococcus aureus 222 assessed as inhibition of bacterial growth incubated for 24 hrs by broth microdilution method; type: functional
Staphylococcus aureus [8] = test: Antibacterial activity against methicillin-resistant Staphylococcus aureus 596 assessed as inhibition of bacterial growth incubated for 24 hrs by broth microdilution method; type: functional
Enterococcus = test: Antibacterial activity against vancomycin-resistant Enterococcus 80 assessed as inhibition of bacterial growth incubated for 24 hrs by broth microdilution method; type: functional
Pseudomonas aeruginosa = test: Antibacterial activity against multidrug-resistant Pseudomonas aeruginosa 126 assessed as inhibition of bacterial growth incubated for 24 hrs by broth microdilution method; type: functional
Klebsiella pneumoniae = test: Antibacterial activity against multidrug-resistant Klebsiella pneumoniae 893 assessed as inhibition of bacterial growth incubated for 24 hrs by broth microdilution method; type: functional
Acinetobacter baumannii = test: Antibacterial activity against carbapenem-resistant Acinetobacter baumannii 882 assessed as inhibition of bacterial growth incubated for 24 hrs by broth microdilution method; type: functional
[9] = Cytotoxicity against human HepG2 cells assessed as reduction in cell viability incubated for 24 hrs by CCK8 assay; type: toxicity, cell-based
[10] = Cytotoxicity against human HEK293 cells assessed as reduction in cell viability incubated for 24 hrs by CCK8 assay; type: toxicity, cell-based
[11] = Cytotoxicity against human A549 cells assessed as reduction in cell viability incubated for 24 hrs by CCK8 assay; type: toxicity, cell-based
Staphylococcus aureus [12] = test: (§1) Antibacterial activity against methicillin-resistant Staphylococcus aureus ATCC33591 infected in systemic intraperitoneal infection Kunming mouse model assessed as decrease in inflammation, neutrophil infiltration, alveolar structure destruction, leukocyte infiltration, interstitial thickening in lungs at 5 mg/kg, ip treated at 1 hr post-infection and measured after 7 days by Hematoxylin-Eosin staining based analysis; type: functional, organism-based; details: time 7.0 day
Staphylococcus aureus [13] = test: as §1, with “inflammation and” for “inflammation,”, “infiltration” for “infiltration, alveolar structure destruction, leukocyte infiltration, interstitial thickening”, “liver” for “lungs”; type: functional, organism-based; details: time 7.0 day
Staphylococcus aureus [14] = test: as §1, with “inflammation and” for “inflammation,”, “infiltration” for “infiltration, alveolar structure destruction, leukocyte infiltration, interstitial thickening”, “kidney” for “lungs”; type: functional, organism-based; details: time 7.0 day
Staphylococcus aureus [15] = test: as §1, with “infiltration and disordered spleen” for “infiltration, alveolar”, “structure” for “structure destruction, leukocyte infiltration, interstitial thickening in lungs”; type: functional, organism-based; details: time 7.0 day
[16] = Toxicity against methicillin-resistant Staphylococcus aureus ATCC33591 infected systemic intraperitoneal infection Kunming mouse model assessed as animal's mortality at 5 mg/kg, ip treated at 1 hr post-infection and measured after 7 days; type: organism-based; details: in vivo, 168 h, time 7 day

Solute carrier family 22 member 1, sequence (O15245 whole entry): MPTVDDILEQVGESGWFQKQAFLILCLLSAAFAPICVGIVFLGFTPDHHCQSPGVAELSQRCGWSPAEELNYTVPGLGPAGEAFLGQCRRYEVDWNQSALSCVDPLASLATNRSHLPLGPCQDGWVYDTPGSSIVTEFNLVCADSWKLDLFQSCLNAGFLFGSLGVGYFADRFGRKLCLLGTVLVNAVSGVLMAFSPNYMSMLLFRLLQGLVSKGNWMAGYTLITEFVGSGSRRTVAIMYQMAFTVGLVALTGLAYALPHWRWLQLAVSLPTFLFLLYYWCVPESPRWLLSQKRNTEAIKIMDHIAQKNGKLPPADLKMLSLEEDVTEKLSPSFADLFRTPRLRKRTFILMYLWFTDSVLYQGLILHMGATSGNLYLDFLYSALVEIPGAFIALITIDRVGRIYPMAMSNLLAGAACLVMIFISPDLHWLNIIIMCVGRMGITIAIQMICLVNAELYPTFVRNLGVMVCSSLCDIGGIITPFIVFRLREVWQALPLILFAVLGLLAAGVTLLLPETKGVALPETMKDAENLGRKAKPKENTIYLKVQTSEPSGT

| Structure (SMILES) | inhibition (INH) [1] | inhibition (INH) [2] | solubility at 12 h [3] [µg/mL] | MIC (Staphylococcus aureus [4]) [µg/mL] | MIC (Staphylococcus aureus [5]) [µg/mL] | MIC (Staphylococcus aureus [6]) [µg/mL] | MIC (Staphylococcus aureus [7]) [µg/mL] | MIC (Staphylococcus aureus [8]) [µg/mL] | MIC (Enterococcus) [µg/mL] | MIC (Pseudomonas aeruginosa) [µg/mL] | MIC (Klebsiella pneumoniae) [µg/mL] | MIC (Acinetobacter baumannii) [µg/mL] | CC50 at 24 h [9] [µM] | CC50 at 24 h [10] [µM] | CC50 at 24 h [11] [µM] | Activity (Staphylococcus aureus [12]) | Activity (Staphylococcus aureus [13]) | Activity (Staphylococcus aureus [14]) | Activity (Staphylococcus aureus [15]) | Activity [16] |
| --- | --- | --- | --- | --- | --- | --- | --- | --- | --- | --- | --- | --- | --- | --- | --- | --- | --- | --- | --- | --- |
| CN(C)CCC=C1c2ccccc2CCc2ccccc21 [AMITRIPTYLINE] | Active | Active | – | – | – | – | – | – | – | – | – | – | – | – | – | – | – | – | – | – |
| C=C[C@]1(C)C[C@@H](OC(=O)CSC(C)(C)CNC(=O)[C@H](N)C(C)C)[C@]2(C)[C@H](C)CC[C@]3(CCC(=O)[C@H]32)[C@@H](C)[C@@H]1O [VALNEMULIN] | – | – | 218 (≈ 386 µM) | > 128 | 128 (≈ 227 µM) | 64 (≈ 113 µM) | 64 (≈ 113 µM) | > 128 | 64 (≈ 113 µM) | 64 (≈ 113 µM) | 32 (≈ 56.7 µM) | 64 (≈ 113 µM) | 77.3 | 65.4 | 53.7 | Active; Slight Without Complete Recovery Observed | Active; Slight Without Complete Recovery Observed | Active; Slight Without Complete Recovery Observed | Active; Slight Without Complete Recovery Observed | Toxic |
